Source: publication PMC4765733 (Journal of medicinal chemistry, 2015)

Legend:
HIV-1LAI = assay: Antiviral MTT assay, MT-2 cells exposed to HIV-1LAI; format: cell-based; conditions: Human immunodeficiency virus 1, MT2, read-out: IC50 (antiviral activity)
[1] = tested on: HIV-1ERS104pre (wild type); assay: Antiviral p24 Gag assay in PHA-PBMs, wild-type HIV-1ERS104pre; format: cell-based

Structure (SMILES): CC(C)CN(C[C@@H](O)[C@H](Cc1ccccc1)NC(=O)O[C@H]1CO[C@H]2OCC[C@H]21)S(=O)(=O)c1ccc(N)cc1 [Darunavir]
- IC50 (HIV-1LAI): 3 nM

Structure (SMILES): COc1ccc(S(=O)(=O)N(CC(C)C)C[C@@H](O)[C@H](Cc2cccc(-c3ccccc3OC)c2)NC(=O)O[C@H]2CO[C@H]3OCC[C@H]32)cc1 [Inhibitor 21e, (3R,3aS,6aR)-hexahydrofuro[2,3-b]furan-3-yl-((2S,3R)-3-hydroxy-4-(N-isobutyl-4-methoxyphenylsulfonamido)-1-(2'-methoxy-[1,1'-biphenyl]-3-yl)butan-2-yl)carbamate]
- EC50 fold better than APV [1]: ~10 fold
